Results as given in ChEMBL document CHEMBL1129586, “Estrogenic triarylethylene acetic acids: effect of structural variation on estrogen receptor affinity and estrogenic potency and efficacy in MCF-7 cells” (J Med Chem, 1996).
Active and inactive are the calls of the source. The rule behind the calls is not given here.

How the values were obtained:
MCF7 [1] = experiment: cells; conditions: Homo sapiens
Description: Stimulation of MCF-7 cell proliferation

MCF7 [2] = experiment: cells; conditions: Homo sapiens; remark: listed apart in the source
Estrogen receptor = Estrogen receptor (Rattus norvegicus, UniProt P06211+Q62986)
MCF7 [3] = experiment: Inhibition of MCF-7 cell proliferation; format: functional; conditions: Homo sapiens
MCF7 [4] = experiment: Inhibition of MCF-7 cell proliferation; h=No inhibitory effect; format: functional, cell-based; conditions: Homo sapiens

| EC50 (MCF7 [1]) | IC50 (MCF7 [2]) | IC50 (Estrogen receptor) | SMILES | IC30 (MCF7 [3]) | IC30 (MCF7 [4]) |
| --- | --- | --- | --- | --- | --- |
| 42 nM | 58 nM | 450 nM | CC/C(=C(\c1ccc(O)cc1)c1ccc(CC(=O)O)cc1)c1ccccc1 | 2.5 nM |  |
| 46 nM | 2390 nM | 750 nM | CCC(=C(c1ccc(O)cc1)c1ccc(O)cc1)c1ccc(OCC(=O)O)cc1 |  | inactive |
| 5.3 nM | 21 nM | 9 nM | CC/C(=C(\c1ccc(O)cc1)c1ccc(OCC(=O)O)cc1)c1ccccc1 | 30 nM |  |
| 350 nM | 97 nM | 1060 nM | CC/C(=C(\c1ccc(C)cc1)c1ccc(OCC(=O)O)cc1)c1ccccc1 | 13 nM |  |
| 300 nM | 320 nM | 4500 nM | CC/C(=C(\c1ccccc1)c1ccc(OCC(=O)O)cc1)c1ccccc1 | 20 nM |  |

| SMILES | EC50 (MCF7 [1]) | IC50 (MCF7 [2]) | IC50 (Estrogen receptor) | IC30 (MCF7 [3]) | IC30 (MCF7 [4]) |
| --- | --- | --- | --- | --- | --- |
| O=C(O)COc1ccc(C(Cc2ccccc2)c2ccc(O)cc2)cc1 (centres undefined) | 16 nM | 600 nM | 900 nM |  | inactive |
